Measurements from ChEMBL document CHEMBL5728630, “Aryl, heteroaryl, and heterocyclic pharmaceutical compounds for treatment of medical disorders” (2021).

Molecular target: Complement factor D (Homo sapiens, UniProt P00746)
Assay: Factor D Assay: Human Factor D (purified from human serum, Complement Technology, Inc.) at 80 nM final concentration is incubated with test compound at various concentrations for 5 min at room temperature in 50 mM Tris, 1M NaCl, pH 7.5. A synthetic substrate Z-L-Lys-SBz and DTNB (Ellman's reagent) are added to final concentrations of 100 μM each. Absorbance at 405 nm (A405) is recorded at 30 second intervals for 30 min using a microplate spectrophotometer. IC50 values are calculated by nonlinear regression of complement Factor D reaction rates as a function of test compound concentration.

Complement factor D, sequence (P00746 whole entry): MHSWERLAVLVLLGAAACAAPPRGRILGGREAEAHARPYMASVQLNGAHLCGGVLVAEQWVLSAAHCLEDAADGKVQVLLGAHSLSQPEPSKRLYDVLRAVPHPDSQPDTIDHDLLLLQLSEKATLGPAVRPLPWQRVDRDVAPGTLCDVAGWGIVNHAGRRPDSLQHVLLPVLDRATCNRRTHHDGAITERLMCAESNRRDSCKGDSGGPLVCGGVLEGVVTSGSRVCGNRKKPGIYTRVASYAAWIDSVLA

| SMILES | IC50 [nM] |
| --- | --- |
| CC(=O)c1nn(CC(=O)N2[C@H](C(=O)Nc3nc(Br)ccc3C)C[C@@]3(C)C[C@@H]23)c2c(C)cc(-c3cnc(C4(F)COC4)nc3)cc12 | < 1000 |
| CC(=O)c1nn(CC(=O)N2[C@H](C(=O)Nc3nc(Br)ccc3C)C[C@@]3(CN4CC(F)(F)C4)C[C@@H]23)c2cnc(-c3cnc(C)nc3)cc12 | < 1000 |
| CC(=O)c1nn(CC(=O)N2[C@H](C(=O)Nc3nc(Br)ccc3C)C[C@@]3(C4COC(C)(C)O4)C[C@@H]23)c2cnc(-c3cnc(C)nc3)cc12 (stereo not given in full) | < 1000 |
| CC(=O)c1nn(CC(=O)N2[C@H](C(=O)Nc3nc(Br)ccc3C)C[C@@]3(CC#N)C[C@@H]23)c2c(C)cc(-c3cnc(C)nc3)cc12 | < 1000 |
| CC(=O)c1nn(CC(=O)N2[C@H](C(=O)Nc3nc(Br)ccc3C)C[C@@]3(CF)C[C@@H]23)c2cnc(-c3cnc(C)nc3)cc12 | < 1000 |
| Cc1ncc(-c2ccc3c(c2)c(C(N)=O)nn3CC(=O)N2[C@H](C(=O)Nc3nc(Br)ccc3C)C[C@@]3(C)C[C@@H]23)cn1 | < 1000 |
| CC(=O)c1nn(CC(=O)N2[C@H](C(=O)NCc3cccc(Cl)c3F)C[C@@]3(C)C[C@@H]23)c2c(C)cc(-c3cnc(C)nc3)cc12 | < 1000 |
| CC(=O)c1nn(CC(=O)N2[C@H](C(=O)Nc3nc(Br)ccc3C)C[C@@]3(C)C[C@@H]23)c2cnc(-c3ccc(C)nc3F)cc12 | < 1000 |
| CC(=O)c1nn(CC(=O)N2[C@H](C(=O)Nc3nc(Br)ccc3C)C[C@@]3(CNC(=O)C(F)(F)F)C[C@@H]23)c2c(C)cc(-c3cnc(C)nc3)cc12 | < 1000 |
| CC(=O)c1nn(CC(=O)N2[C@H](C(=O)Nc3cnc(C)c(Br)n3)C[C@@]3(C)C[C@@H]23)c2c(C)cc(-c3cnc(C)nc3)cc12 | < 1000 |
| CC(=O)c1nn(CC(=O)N2[C@H](C(=O)Nc3nc(Br)ccc3C)C[C@@]3(CNC4=NCCO4)C[C@@H]23)c2cnc(-c3cnc(C)nc3)cc12 | < 1000 |
| CC(=O)c1nn(CC(=O)N2[C@H](C(=O)NCc3ccccc3)C[C@@]3(C)C[C@@H]23)c2ccc(-c3cnc(C)nc3)cc12 | < 1000 |
| CC(=O)c1nn(CC(=O)N2[C@H](C(=O)Nc3nc(Br)ccc3C)C[C@@]3(CNC(=O)C4CCCC4(F)F)C[C@@H]23)c2c(C)cc(-c3cnc(C)nc3)cc12 (stereo not given in full) | < 1000 |
| CC(=O)c1nn(CC(=O)N2[C@H](C(=O)Nc3cccc(-c4ccccc4Cl)c3F)C[C@@]3(C)C[C@@H]23)c2c(C)cc(-c3cnc(C)nc3)cc12 | < 1000 |
| CC[C@@]12C[C@@H](C(=O)Nc3nc(Br)ccc3C)N(C(=O)Cn3nc(C(C)=O)c4cc(-c5cnc(C)nc5)ncc43)[C@@H]1C2 | < 1000 |
| CC(=O)c1nn(CC(=O)N2[C@H](C(=O)NCc3ccc(C)cc3)C[C@@]3(C)C[C@@H]23)c2c(C)cc(-c3cnc(C)nc3)cc12 | < 1000 |
| CC(=O)c1nn(CC(=O)N2[C@H](C(=O)Nc3nc(Br)ccc3C)C[C@@]3(CCCF)C[C@@H]23)c2cnc(-c3cnc(C)nc3)cc12 | < 1000 |
| C#CC(C)(C)NC(=O)c1nn(CC(=O)N2[C@H](C(=O)Nc3nc(Br)ccc3C)C[C@@]3(C)C[C@@H]23)c2ccc(-c3cnc(C)nc3)cc12 | > 10000 |
| CC(=O)c1nn(CC(=O)N2[C@H](C(=O)Nc3nc(Br)ccc3CN3CCc4ccccc4C3)C[C@@]3(C)C[C@@H]23)c2cnc(-c3cnc(C)nc3)cc12 | < 1000 |
| Cc1ncc(-c2ccc3c(c2)c(C(=O)NC(C)C2CC2)nn3CC(=O)N2[C@H](C(=O)Nc3nc(Br)ccc3C)C[C@@]3(C)C[C@@H]23)cn1 (stereo not given in full) | < 1000 |

| SMILES | IC50 [nM] |
| --- | --- |
| Cc1ncc(-c2cc3c(C(N)=O)nn(CC(=O)N4[C@H](C(=O)Nc5nc(Br)c(F)cc5C)C[C@@]5(C)C[C@@H]45)c3cn2)cn1 | < 1000 |
| CC(=O)c1nn(CC(=O)N2[C@H](C(=O)Nc3cccc(-c4ccccc4Cl)c3F)C[C@@]3(C)C[C@@H]23)c2ccc(-c3cnc(C)nc3)cc12 | < 1000 |
| CC(=O)c1nn(CC(=O)N2[C@H](C(=O)Nc3nc(Br)ccc3C)C[C@@]3(CN4CC(C)(C)C4)C[C@@H]23)c2c(C)nc(-c3cnc(C)nc3)cc12 | < 1000 |
| C=CCNC(=O)c1nn(CC(=O)N2[C@H](C(=O)Nc3nc(Br)ccc3C)C[C@@]3(C)C[C@@H]23)c2ccc(-c3cnc(C)nc3)cc12 | < 1000 |
| CC(=O)c1nn(CC(=O)N2[C@H](C(=O)Nc3nc(Br)ccc3C)C[C@@]3(CN(C)C)C[C@@H]23)c2cnc(-c3cnc(C)nc3)cc12 | < 1000 |
| CC(=O)c1nn(CC(=O)N2[C@H](C(=O)NCCN3CCCCC3)C[C@@]3(C)C[C@@H]23)c2c(C)cc(-c3cnc(C)nc3)cc12 | > 10000 |
| CC(=O)c1nn(CC(=O)N2[C@H](C(=O)Nc3cc(C(=O)O)cc(Br)n3)C[C@@]3(C)C[C@@H]23)c2c(CN)cc(-c3cnc(C)nc3)cc12 | < 1000 |
| CC(=O)c1nn(CC(=O)N2[C@H](C(=O)Nc3nc(Br)ccc3C3COC(=O)O3)C[C@@]3(C)C[C@@H]23)c2cnc(-c3cnc(C)nc3)cc12 (stereo not given in full) | < 1000 |
| CC(=O)c1nn(CC(=O)N2[C@H](C(=O)Nc3cc(C)cc(Br)n3)C[C@@]3(C)C[C@@H]23)c2c(C)nc(-c3cnc(C)nc3)cc12 | < 1000 |
| CC(=O)c1nn(CC(=O)N2[C@H](C(=O)Nc3nc(Br)ccc3COCCF)C[C@@]3(C)C[C@@H]23)c2cnc(-c3cnc(C)nc3)cc12 | < 1000 |
| CC(=O)c1nn(CC(=O)N2[C@H](C(=O)Nc3nc(Br)ccc3CN3CCn4c(nnc4C(F)(F)F)C3)C[C@@]3(C)C[C@@H]23)c2cnc(-c3cnc(C)nc3)cc12 | < 1000 |
| CCCCCCNC(=O)[C@@H]1C[C@@]2(C)C[C@H]2N1C(=O)Cn1nc(C(C)=O)c2cc(-c3cnc(C)nc3)cc(C)c21 | < 1000 |
| CCCCCNC(=O)[C@@H]1C[C@@]2(C)C[C@H]2N1C(=O)Cn1nc(C(C)=O)c2cc(-c3cnc(C)nc3)cc(C)c21 | < 1000 |
| Cc1ncc(-c2ccc3c(c2)c(C(=O)NC2CC2)nn3CC(=O)N2[C@H](C(=O)Nc3nc(Br)ccc3C)C[C@@]3(C)C[C@@H]23)cn1 | < 1000 |
| CC(=O)c1nn(CC(=O)N2[C@H](C(=O)Nc3nc(Br)ccc3C)C[C@@]3(C)C[C@@H]23)c2ccc(-c3cnc(CN4CCCC(F)(F)C4)nc3)cc12 | < 1000 |
| CC(=O)c1nn(CC(=O)N2[C@H](C(=O)Nc3nc(Br)ccc3C)C[C@@]3(C)C[C@@H]23)c2ccc(-c3cnc(C)nc3)cc12 [VEMIRCOPAN] | > 10000 |
| C=Cc1nn(CC(=O)N2[C@H](C(=O)Nc3nc(Br)ccc3C)C[C@@]3(C)C[C@@H]23)c2cnc(-c3cnc(C)nc3)cc12 | < 1000 |
| CCNC(=O)[C@@H]1C[C@@]2(C)C[C@H]2N1C(=O)Cn1nc(C(C)=O)c2cc(-c3cnc(C)nc3)cc(C)c21 | < 1000 |
| COCc1ccc(Br)nc1NC(=O)[C@@H]1C[C@@]2(CN(C)C)C[C@H]2N1C(=O)Cn1nc(C(C)=O)c2cc(-c3cnc(C)nc3)ccc21 | < 1000 |
| CC(=O)c1nn(CC(=O)N2[C@H](C(=O)Nc3nc(Br)ccc3C)C[C@@]3(CC#N)C[C@@H]23)c2cnc(-c3cnc(C)nc3)cc12 | < 1000 |

| SMILES | IC50 [nM] |
| --- | --- |
| C=C[C@@]12C[C@@H](C(=O)Nc3nc(Br)ccc3Cc3nnc(CCCC)o3)N(C(=O)Cn3nc(C(C)=O)c4cc(-c5cnc(C)nc5)ncc43)[C@@H]1C2 | < 1000 |
| CC(=O)C[C@@]12C[C@@H](C(=O)Nc3nc(Br)ccc3C)N(C(=O)Cn3nc(C(C)=O)c4cc(-c5cnc(C)nc5)ncc43)[C@@H]1C2 | < 1000 |
| CC(=O)c1nn(CC(=O)N2[C@H](C(=O)NCCCc3ccccc3)C[C@@]3(C)C[C@@H]23)c2c(C)cc(-c3cnc(C)nc3)cc12 | < 1000 |
| COCc1ccc(Br)nc1NC(=O)[C@@H]1C[C@@]2(C)C[C@H]2N1C(=O)Cn1nc(C(C)=O)c2cc(-c3cnc(C)nc3)cc(COC)c21 | < 1000 |
| CC(=O)c1nn(CC(=O)N2[C@H](C(=O)Nc3nc(Br)ccc3C)C[C@@]3(C)C[C@@H]23)c2c(C(C)F)cc(-c3cnc(C)nc3)cc12 (stereo not given in full) | < 1000 |
| CC(=O)c1nn(CC(=O)N2[C@H](C(=O)N[C@H](C)c3ccccc3)C[C@@]3(C)C[C@@H]23)c2c(C)cc(-c3cnc(C)nc3)cc12 | < 1000 |
| COCc1ncc(-c2cc3c(C(C)=O)nn(CC(=O)N4[C@H](C(=O)Nc5nc(Br)ccc5C)C[C@@]5(C)C[C@@H]45)c3cn2)cn1 | < 1000 |
| CC(=O)c1nn(CC(=O)N2[C@H](C(=O)Nc3nc(Br)ccc3C)C[C@@]3(C#N)C[C@@H]23)c2cnc(-c3cnc(C)nc3)cc12 | < 1000 |
| Cc1ncc(-c2cc(C)c3c(c2)c(C(=O)N2CC4(CCC4)C2)nn3CC(=O)N2[C@H](C(=O)Nc3nc(Br)ccc3C)C[C@@]3(C)C[C@@H]23)cn1 | > 10000 |
| Cc1ncc(-c2ccc3c(c2)c(C(=O)NC(C)(C)C2CC2)nn3CC(=O)N2[C@H](C(=O)Nc3nc(Br)ccc3C)C[C@@]3(C)C[C@@H]23)cn1 | > 10000 |
| C=CCCS(=O)(=O)NC[C@@]12C[C@@H](C(=O)Nc3nc(Br)ccc3C=C)N(C(=O)Cn3nc(C(C)=O)c4cc(-c5cnc(C)nc5)ccc43)[C@@H]1C2 | < 1000 |
| CC(=O)c1nn(CC(=O)N2[C@@H](C(=O)Nc3nc(Br)ccc3C)C[C@]3(C)C[C@H]23)c2ccc(-c3cnc(C)nc3)cc12 | > 10000 |
| CC(=O)c1nn(CC(=O)N2[C@H](C(=O)Nc3nc(Br)ccc3C)C[C@@]3(CN4CC(O)C4)C[C@@H]23)c2cnc(-c3cnc(C)nc3)cc12 | < 1000 |
| CC(=O)c1nn(CC(=O)N2[C@H](C(=O)Nc3nc(Br)ccc3CN3CCC(S(C)(=O)=O)CC3)C[C@@]3(C)C[C@@H]23)c2c(C)cc(-c3cnc(C)nc3)cc12 | < 1000 |
| CC(=O)c1nn(CC(=O)N2[C@H](C(=O)NCc3ncccn3)C[C@@]3(C)C[C@@H]23)c2c(C)cc(-c3cnc(C)nc3)cc12 | < 1000 |
| CC(=O)c1nn(CC(=O)N2[C@H](C(=O)Nc3nc(Br)ccc3C)C[C@@]3(C)C[C@@H]23)c2c(C)cc(-c3cnc(C4(O)COC4)nc3)cc12 | < 1000 |
| CC(=O)c1nn(CC(=O)N2[C@H](C(=O)Nc3nc(C(F)(F)F)ccc3C)C[C@@]3(C)C[C@@H]23)c2c(C)nc(-c3cnc(C)nc3)cc12 | < 1000 |
| CC(=O)c1nn(CC(=O)N2[C@H]3C[C@@]3(CF)C[C@H]2C(=O)Nc2nc(Br)ccc2C)c2cnc(-c3cnc(C)nc3)cc12 | < 1000 |
| CC(=O)c1nn(CC(=O)N2[C@H](C(=O)NCc3ccccn3)C[C@@]3(C)C[C@@H]23)c2c(C)cc(-c3cnc(C)nc3)cc12 | < 1000 |
| CCCCNC(=O)[C@@H]1C[C@@]2(C)C[C@H]2N1C(=O)Cn1nc(C(C)=O)c2cc(-c3cnc(C)nc3)cc(C)c21 | < 1000 |
